Source: the supplement of paper PMC10307832

Experiments:
Assay in all cases: relative viability (nuclei count vs DMSO), 5 days (fraction); higher = more cells survive
RU-SKI 43 + Bortezomib = compound: CC[C@@H](C)CNCC(=O)N1CCC2=C([C@@H]1COC3=CC=CC(=C3)C)C=CS2 [RU-SKI 43] + CC(C)C[C@H](NC(=O)[C@H](Cc1ccccc1)NC(=O)c1cnccn1)B(O)O [Bortezomib] (partner 0.002 µM)
Summary of the method: (§1)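 Relative viability equals treated-well nuclei counts divided by vehicle-well nuclei counts. Counts came from 4× images of lung cancer cell lines grown in 1536-well plates for 5 days after pin-tool dosing on the day after seeding. Dosing used one drug alone or a fixed anchor-drug dose plus five library-drug doses (not always all listed) in √10 steps, and values are medians of duplicate plates.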

RU-SKI 43 + Linsitinib = compound: CC[C@@H](C)CNCC(=O)N1CCC2=C([C@@H]1COC3=CC=CC(=C3)C)C=CS2 [RU-SKI 43] + C[C@]1(O)C[C@@H](c2nc(-c3ccc4ccc(-c5ccccc5)nc4c3)c3c(N)nccn32)C1 [Linsitinib] (partner 1 µM)
Summary of the method: as §1

RU-SKI 43 + Phenformin = compound: CC[C@@H](C)CNCC(=O)N1CCC2=C([C@@H]1COC3=CC=CC(=C3)C)C=CS2 [RU-SKI 43] + N=C(N)NC(=N)NCCc1ccccc1 [Phenformin] (partner 250 µM)
Summary of the method: as §1

MK-8033 + Dasatinib = compound: Cn1cc(-c2cnc3ccc4ccc(CS(=O)(=O)NCc5ccccn5)cc4c(=O)c3c2)cn1 [MK-8033] + Cc1nc(Nc2ncc(C(=O)Nc3c(C)cccc3Cl)s2)cc(N2CCN(CCO)CC2)n1 [Dasatinib] (partner 0.075 µM)
Summary of the method: as §1

Cell Line | relative viability (RU-SKI 43 + Bortezomib; first compound 0.1 µM) | relative viability (RU-SKI 43 + Bortezomib; first compound 0.3162 µM) | relative viability (RU-SKI 43 + Bortezomib; first compound 1 µM) | relative viability (RU-SKI 43 + Bortezomib; first compound 3.162 µM) | relative viability (RU-SKI 43 + Bortezomib; first compound 10 µM) | relative viability (RU-SKI 43 + Linsitinib; first compound 0.1 µM) | relative viability (RU-SKI 43 + Linsitinib; first compound 0.3162 µM) | relative viability (RU-SKI 43 + Linsitinib; first compound 1 µM) | relative viability (RU-SKI 43 + Linsitinib; first compound 3.162 µM) | relative viability (RU-SKI 43 + Linsitinib; first compound 10 µM) | relative viability (RU-SKI 43 + Phenformin; first compound 0.1 µM) | relative viability (RU-SKI 43 + Phenformin; first compound 0.3162 µM) | relative viability (RU-SKI 43 + Phenformin; first compound 1 µM) | relative viability (RU-SKI 43 + Phenformin; first compound 3.162 µM) | relative viability (RU-SKI 43 + Phenformin; first compound 10 µM) | relative viability (MK-8033 + Dasatinib; first compound 0.02 µM) | relative viability (MK-8033 + Dasatinib; first compound 0.06325 µM) | relative viability (MK-8033 + Dasatinib; first compound 0.2 µM) | relative viability (MK-8033 + Dasatinib; first compound 0.6325 µM) | relative viability (MK-8033 + Dasatinib; first compound 2 µM)
NCI-H2023 | 0.88 | 1.21 | 1.04 | 1.15 | 0.932 | 0.597 | 0.748 | 0.661 | 0.675 | 0.697 | 0.421 | 0.471 | 0.466 | 0.43 | 0.396 | 0.603 | 0.437 | 0.421 | 0.342 | 0.288
PC-14 | 0.793 | 1.19 | 0.942 | 0.848 | 0.66 | 0.962 | 1 | 1.05 | 1.07 | 0.939 | 0.646 | 0.468 | 0.841 | 0.457 | 0.651 | 0.254 | 0.181 | 0.246 | 0.232 | 0.245
NCI-H1734 | 0.971 | 1.08 | 0.917 | 0.824 | 0.789 | 0.905 | 0.818 | 0.918 | 0.934 | 0.791 | 0.43 | 0.385 | 0.44 | 0.35 | 0.38 | 0.441 | 0.469 | 0.429 | 0.411 | 0.395
NCI-H727 | 1 | 1.14 | 0.834 | 0.839 | 0.802 | 0.31 | 0.244 | 0.335 | 0.223 | 0.242 | 0.524 | 0.59 | 0.676 | 0.662 | 0.445 | 0.363 | – | 0.464 | 0.435 | 0.322
HOP-62 | 0.728 | 0.561 | 1.01 | 0.731 | 0.765 | 1.04 | 0.938 | 1.1 | 1.17 | 1.04 | 0.688 | 0.547 | 0.779 | 0.789 | 0.714 | 0.536 | 0.535 | 0.581 | 0.66 | 0.599
NCI-H2405 | 0.957 | 1.03 | 1.02 | 0.936 | 0.773 | 0.866 | 0.941 | 0.732 | 0.857 | 0.808 | 0.37 | 0.371 | 0.413 | 0.379 | 0.358 | 0.185 | 0.202 | 0.228 | 0.213 | 0.21
A-427 | 1.05 | 0.95 | 1.05 | – | 0.896 | 1.08 | 1.22 | 1.13 | – | 1.01 | 0.335 | 0.308 | 0.44 | 0.29 | 0.305 | 0.677 | 0.701 | 0.661 | 0.731 | 0.67
LCLC-97TM1 | 0.852 | 0.827 | 1.79 | 0.684 | 0.645 | 0.221 | – | 0.172 | 0.201 | 0.182 | 0.463 | 0.471 | 0.422 | 0.43 | 0.384 | 0.887 | 0.814 | 0.803 | 0.84 | 0.939
